≈ marks a conversion by molar mass, not a printed value.
Key:
[1] = test system: Acinetobacter calcoaceticus CMX 669; test: In vitro antibacterial activity, MIC by agar dilution; assay type: cell-based; conditions: BHI agar, 35-37°C, 20-24 hours, unit assumed
In short: (§1)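 Agar dilution; ~10^4 CFU/spot by replicator (1:100 dilution, 1:10 for slow growers); 35–37°C, ~20–24 h. MIC = lowest conc. with no growth (slight haze or sparse colonies allowed) vs drug-free BHI control; ciprofloxacin control.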

[2] = test system: Enterobacter aerogenes ATCC 13048; test: as above; assay type: cell-based; conditions: BHI agar, 35-37°C, 20-24 hours, unit assumed
In short: as §1

[3] = test system: Enterococcus faecium ATCC 8043; test: as above; assay type: cell-based; conditions: BHI agar, 35-37°C, 20-24 hours, unit assumed
In short: as §1

[4] = test system: Escherichia coli DC-2; test: as above; assay type: cell-based; conditions: BHI agar, 35-37°C, 20-24 hours, unit assumed
In short: as §1

[5] = test system: Escherichia coli H560; test: as above; assay type: cell-based; conditions: BHI agar, 35-37°C, 20-24 hours, unit assumed
In short: as §1

[6] = test system: Escherichia coli JUHL; test: as above; assay type: cell-based; conditions: BHI agar, 35-37°C, 20-24 hours, unit assumed
In short: as §1

[7] = test system: Escherichia coli KNK 437; test: as above; assay type: cell-based; conditions: BHI agar, 35-37°C, 20-24 hours, unit assumed
In short: as §1

[8] = test system: Escherichia coli SS; test: as above; assay type: cell-based; conditions: BHI agar, 35-37°C, 20-24 hours, unit assumed
In short: as §1

[9] = test system: Klebsiella pneumoniae ATCC 8045; test: as above; assay type: cell-based; conditions: BHI agar, 35-37°C, 20-24 hours, unit assumed
In short: as §1

[10] = test system: Micrococcus luteus ATCC 4698; test: as above; assay type: cell-based; conditions: BHI agar, 35-37°C, 20-24 hours, unit assumed
In short: as §1

[11] = test system: Micrococcus luteus ATCC 9341; test: as above; assay type: cell-based; conditions: BHI agar, 35-37°C, 20-24 hours, unit assumed
In short: as §1

[12] = test system: Providencia stuartii CMX 640; test: as above; assay type: cell-based; conditions: BHI agar, 35-37°C, 20-24 hours, unit assumed
In short: as §1

[13] = test system: Pseudomonas aeruginosa 2862; test: as above; assay type: cell-based; conditions: BHI agar, 35-37°C, 20-24 hours, unit assumed
In short: as §1

[14] = test system: Pseudomonas aeruginosa 5263; test: as above; assay type: cell-based; conditions: BHI agar, 35-37°C, 20-24 hours, unit assumed
In short: as §1

[15] = test system: Pseudomonas aeruginosa A5007; test: as above; assay type: cell-based; conditions: BHI agar, 35-37°C, 20-24 hours, unit assumed
In short: as §1

[16] = test system: Pseudomonas aeruginosa BMH10; test: as above; assay type: cell-based; conditions: BHI agar, 35-37°C, 20-24 hours, unit assumed
In short: as §1

[17] = test system: Pseudomonas aeruginosa K799/61; test: as above; assay type: cell-based; conditions: BHI agar, 35-37°C, 20-24 hours, unit assumed
In short: as §1

[18] = test system: Pseudomonas aeruginosa K799/WT; test: as above; assay type: cell-based; conditions: BHI agar, 35-37°C, 20-24 hours, unit assumed
In short: as §1

[19] = test system: Pseudomonas cepacia 296I; test: as above; assay type: cell-based; conditions: BHI agar, 35-37°C, 20-24 hours, unit assumed
In short: as §1

[20] = test system: Staphylococcus aureus 1775; test: as above; assay type: cell-based; conditions: BHI agar, 35-37°C, 20-24 hours, unit assumed
In short: as §1

[21] = test system: Staphylococcus aureus 642A; test: as above; assay type: cell-based; conditions: BHI agar, 35-37°C, 20-24 hours, unit assumed
In short: as §1

[22] = test system: Staphylococcus aureus A-5278; test: as above; assay type: cell-based; conditions: BHI agar, 35-37°C, 20-24 hours, unit assumed
In short: as §1

[23] = test system: Staphylococcus aureus A5177; test: as above; assay type: cell-based; conditions: BHI agar, 35-37°C, 20-24 hours, unit assumed
In short: as §1

[24] = test system: Staphylococcus aureus ATCC 6538P; test: as above; assay type: cell-based; conditions: BHI agar, 35-37°C, 20-24 hours, unit assumed
In short: as §1

[25] = test system: Staphylococcus aureus CMX 553; test: as above; assay type: cell-based; conditions: BHI agar, 35-37°C, 20-24 hours, unit assumed
In short: as §1

[26] = test system: Staphylococcus aureus NCTC 10649; test: as above; assay type: cell-based; conditions: BHI agar, 35-37°C, 20-24 hours, unit assumed
In short: as §1

[27] = test system: Staphylococcus epidermidis 3519; test: as above; assay type: cell-based; conditions: BHI agar, 35-37°C, 20-24 hours, unit assumed
In short: as §1

[28] = test system: Streptococcus agalactaciae CMX 508; test: as above; assay type: cell-based; conditions: BHI agar, 35-37°C, 20-24 hours, unit assumed
In short: as §1

[29] = test system: Streptococcus bovis A5169; test: as above; assay type: cell-based; conditions: BHI agar, 35-37°C, 20-24 hours, unit assumed
In short: as §1

[30] = test system: Streptococcus pyrogenes 2548 INDUC; test: as above; assay type: cell-based; conditions: BHI agar, 35-37°C, 20-24 hours, unit assumed
In short: as §1

[31] = test system: Streptococcus pyrogenes CONST; test: as above; assay type: cell-based; conditions: BHI agar, 35-37°C, 20-24 hours, unit assumed
In short: as §1

[32] = test system: Streptococcus pyrogenes EES61; test: as above; assay type: cell-based; conditions: BHI agar, 35-37°C, 20-24 hours, unit assumed
In short: as §1

[33] = test system: Staphylococcus aureus NCTC 10649; test: In vivo antibacterial activity in mice (protection from lethal intraperitoneal infection); conditions: NCTC10649, 144 h, S. aureus, CF-1 female mice infected intraperitoneally with 100 times the LD50, treated at 1 and 5 hr after infection, cumulative mortalities on the sixth day
Description: (§2) The in vivo antibacterial activity of the compounds of the present invention was determined as follows: Aqueous solutions of the test compounds were prepared by dissolving the compound in distilled water, except for the compounds of examples 169 and 170 which were dissolved in a solution of 2% DMSO in distilled water.
(§3) After 18 hr incubation, a culture of Staphylococcus aureus NCTC 10649 was serially diluted by using 10-fold dilutions in 5% (w/v) hog gastric mucin. Cultures (0.5 mL) in a dilution from 10^-1 to 10^-8 were injected intraperitoneally into CF-1 female mice weighing approximately 20g. The LD50 (median lethal dose) for the test organism was calculated from the cumulative mortalities on the sixth day by the using the Reed and Muench procedure (Reed, L.J., and H. Muench, Amer. J. Hygiene, 27, 493 (1938)).
(§4) The above 18 hr culture was diluted in 5% (w/v) hog gastric mucin to obtain 100 times the LD50, and 0.5 mL was injected intraperitoneally into mice. The mice were treated subcutaneously (sc) or orally (po) with a specific amount of the test compound divided equally to be administered at 1 and 5 hr after infection. A group of 10 animals each for at least three dose levels was thus treated, and the deaths were recorded daily for 6 days. Ten mice were left untreated as infection control. ED50 values were calculated from the cumulative mortalities on the sixth day after infection by using the trimmed version of the Logit method ( Hamilton, M.A., R.C. Russo, and R.V. Thurston, Environ. Sci. Technol. 11, 714 (1977)).

[34] = test system: Escherichia coli JUHL; test: as above; conditions: 144 h, E. coli JUHL, mice infected intraperitoneally, treated at 1 and 5 hr after infection, cumulative mortalities on the sixth day
Description: as §2, §3, §4
The LD50 for Escherichia coli JUHL was determined in a manner similar to that above for S. aureus. The 18 hr cultures of this organism were also prepared for po and sc testing in mice, from which ED50 values were calculated. Positive controls were run with temafloxacin as the test compound, for which ED50 values were also calculated.

CC(=O)N[C@H]1C[C@H](C)N(c2nc3c(-c4ccc(F)cc4F)cc(C(=O)O)c(=O)n3cc2F)C1 [Example 169, 2-((2S,4S)-4-Acetamido-2-methylpyrrolidin-1-yl)-9-(2,4-difluorophenyl)-3-fluoro-6H-6-oxopyrido[1,2-a]pyrimidine-7-carboxylic acid]
MIC values [1]: 3.1 µg/mL (≈ 6.73 µM) | MIC values [2]: 3.1 µg/mL (≈ 6.73 µM) | MIC values [3]: 1.56 µg/mL (≈ 3.39 µM) | MIC values [4]: 12.5 µg/mL (≈ 27.1 µM) | MIC values [5]: 0.78 µg/mL (≈ 1.69 µM) | MIC values [6]: 0.78 µg/mL (≈ 1.69 µM) | MIC values [7]: 6.2 µg/mL (≈ 13.5 µM) | MIC values [8]: 0.005 µg/mL (≈ 0.0109 µM) | MIC values [9]: 0.39 µg/mL (≈ 0.847 µM) | MIC values [10]: 0.39 µg/mL (≈ 0.847 µM) | MIC values [11]: 3.1 µg/mL (≈ 6.73 µM) | MIC values [12]: 25 µg/mL (≈ 54.3 µM) | MIC values [13]: > 100 µg/mL | MIC values [14]: > 100 µg/mL | MIC values [15]: 3.1 µg/mL (≈ 6.73 µM) | MIC values [16]: 3.1 µg/mL (≈ 6.73 µM) | MIC values [17]: 0.39 µg/mL (≈ 0.847 µM) | MIC values [18]: 3.1 µg/mL (≈ 6.73 µM) | MIC values [19]: 25 µg/mL (≈ 54.3 µM) | MIC values [20]: 25 µg/mL (≈ 54.3 µM) | MIC values [21]: 0.39 µg/mL (≈ 0.847 µM) | MIC values [22]: 0.2 µg/mL (≈ 0.434 µM) | MIC values [23]: 0.2 µg/mL (≈ 0.434 µM) | MIC values [24]: 0.1 µg/mL (≈ 0.217 µM) | MIC values [25]: 0.39 µg/mL (≈ 0.847 µM) | MIC values [26]: 0.2 µg/mL (≈ 0.434 µM) | MIC values [27]: 0.39 µg/mL (≈ 0.847 µM) | MIC values [28]: 0.78 µg/mL (≈ 1.69 µM) | MIC values [29]: 3.1 µg/mL (≈ 6.73 µM) | MIC values [30]: 0.39 µg/mL (≈ 0.847 µM) | MIC values [31]: 0.39 µg/mL (≈ 0.847 µM) | MIC values [32]: 0.78 µg/mL (≈ 1.69 µM) | ED50 ([33]; po): > 48 mg/kg | ED50 ([33]; sc): 7.5 mg/kg

CC1CN(c2cc3c(cc2F)c(=O)c(C(=O)O)cn3-c2ccc(F)cc2F)CCN1 (centres unmarked) [temafloxacin, reference compound]
ED50 ([33]; po): 1.5 mg/kg | ED50 ([33]; sc): 1.3 mg/kg | ED50 ([34]; po): 1.5 mg/kg | ED50 ([34]; sc): 0.5 mg/kg

From EP0527889B1, “QUINOLIZINONE TYPE COMPOUNDS” (priority 1990, dated 1991)
